In assay [1] the test system is NOS2. Put plainly: LPS-induced NOS2 mRNA (qRT-PCR) and protein (western blot) in Raw 264.7. In kind it is cell-based, mouse. Particulars: 1 h pre-treatment, Bay 11-7082 5 μM.
Method: Macrophage cultures were treated with 1 µg/mL LPS, for 6 h (a) or 18 h (b), following pre-treatment for 1 h with 666 µM of each test compound (a) or with the concentrations indicated in (b). […] Control cells (Ctrl) were treated with the vehicle (0.1% DMSO) in the absence of LPS. Each column represents the mean ± SEM of four independent experiments. The blots shown are representative of, at least, three independent experiments and are cropped for clarity and conciseness.
Total RNA extraction and qRT-PCR were performed as described before[52]. Briefly, total RNA was extracted using the NZYol (NZYTECH, Lisbon, Portugal) and quantified in a NanoDrop ND-1000 spectrophotometer at 260 nm. RNA purity was assessed by analysis of 260/230 and 260/280 absorption ratios. The cDNA was reverse-transcribed using NZY First Strand cDNA Synthesis Kit (NZYTECH), beginning with 2 µg of total RNA. qRT-PCR was performed, in duplicate for each sample, using NZYSpeedy qPCR Green Master Mix (2×) (NZYTECH) on CFX96 Real-Time PCR Detection System (Bio-Rad, Hercules, CA, USA).
Gene expression changes were analysed using the built-in CFX Manager software which enables the analysis of the results by the Pfaffl method, a variation of the ΔΔCT method corrected for gene-specific efficiencies[53]. The results were normalized using Hprt1 as housekeeping gene.
Total cell extracts were prepared and western blot was performed as described before[54]. Briefly, total (25 µg for Raw 264.7 cell line and 20 µg for human chondrocytes) proteins were separated by SDS-PAGE under reducing conditions and electrotransferred onto PVDF membranes. […] Immune complexes were detected with Enhanced ChemiFluorescence reagent (GE Healthcare) in the imaging system Thyphoon FLA 9000 (GE Healthcare). The membranes were reprobed with a mouse monoclonal anti-β-Tubulin I antibody (Sigma-Aldrich Co.), diluted at 1:20000, as a loading control, for 1 h at room temperature. Image analysis was performed with TotalLab TL120 software (Nonlinear Dynamics Ltd).
For assay [2], the system named is LPS-induced NO production in Raw 264.7 macrophages. Briefly: Primary screening: LPS-induced NO production (nitrite, Griess reaction) in Raw 264.7 macrophages. Particulars: pre-treatment with 5 μM; Raw 264.7. In kind it is cell-based, mouse. The protocol:
Raw 264.7 cells were plated at a density of 3 × 10^5 cells/mL and left to stabilize for up to 24 h.
This vehicle was used as control. Lipopolysaccharides from Escherichia coli 026:B6 (LPS; Sigma-Aldrich Co.) were dissolved in phosphate buffered saline (PBS). Recombinant human interleukin-1β (IL-1β; Peprotech, Rocky Hill, NJ, USA) was dissolved in PBS containing 0.1% Bovine Serum Albumin.
NO production was measured as the amount of nitrite accumulated in the culture supernatants using the Griess reaction which is based in the reaction of nitrite with sulfanilamide under acidic conditions, yielding a diazonium ion that couples to N-(1-napthtyl)ethylenediamine dihydrochloride to form a water-soluble red-violet azo dye that absorbs at 550 nm[51]. Briefly, equal volumes of culture supernatants and reagents [equal volumes of 1% (w/v) sulphanilamide in 5% (v/v) phosphoric acid and 0.1% (w/v) N-(1-napthtyl)ethylenediamine dihydrochloride] were mixed and incubated for 10 min, at room temperature, in the dark. The concentration of nitrite accumulated in the culture supernatants was calculated by interpolation of the absorbance of each sample, read in Biotek Synergy HT plate reader (Biotek), in a standard curve of sodium nitrite.
Background: The Griess reaction detects nitrite, a stable product of nitric oxide.

For assay [3], the system named is human chondrocytes. Put plainly: IL-1β-induced NOS2 protein, NO production and pro-IL-1β protein in primary human chondrocytes. The note with it: IL-1β 10 ng/mL 24 h, carvone 666 or 1331 µM, Bay 11-7082 5 µM. The assay is classed as cell-based.
Method: The cells were treated with 10 ng/mL IL-1β for 24 h (a, b, c and d), following pre-treatment for 1 h with 666 or 1331 µM of (S)-(+)-carvone (4). As a positive control, the cells were similarly treated with 5 μM Bay 11-7082 (b and c). Control cells (Ctrl) were treated with the vehicle (0.1% DMSO) in the absence of IL-1β. Each column represents the mean ± SEM of, at least, three independent experiments. The blots shown are representative of, at least, three independent experiments and are cropped for clarity and conciseness.
Briefly, cartilage shavings underwent sequential digestion with Pronase (Roche, Indianapolis, IN, USA) and collagenase A (Roche, Indianapolis, IN, USA). To avoid chondrocyte dedifferentiation, non-proliferating monolayer cultures were setup by plating 1× 10^6 chondrocytes/mL in HAM: F12 medium containing 3% antibiotics and 5% FBS and allowed to recover for 24 h at 37 °C in a humidified atmosphere with 5% CO2. Prior to any treatments, chondrocytes were serum-starved overnight and thereafter maintained in culture medium without FBS.
This vehicle was used as control. […] Recombinant human interleukin-1β (IL-1β; Peprotech, Rocky Hill, NJ, USA) was dissolved in PBS containing 0.1% Bovine Serum Albumin.
Total cell extracts were prepared and western blot was performed as described before[54]. […] Immune complexes were detected with Enhanced ChemiFluorescence reagent (GE Healthcare) in the imaging system Thyphoon FLA 9000 (GE Healthcare). The membranes were reprobed with a mouse monoclonal anti-β-Tubulin I antibody (Sigma-Aldrich Co.), diluted at 1:20000, as a loading control, for 1 h at room temperature. Image analysis was performed with TotalLab TL120 software (Nonlinear Dynamics Ltd).

The values that follow come from publication PMC7190660, “Standardised comparison of limonene-derived monoterpenes identifies structural determinants of anti-inflammatory activity” (Scientific Reports, 2020).

SMILES strings stand for the structures.

With `Cc1ccc(S(=O)(=O)/C=C/C#N)cc1` [Bay 11-7082, reference compound], the “LPS-induced NOS2 mRNA levels” value in assay [1] (LPS 1 µg/mL 6 h, test compounds 666 µM) is given as “decreased”. Besides, in assay [1] (LPS 1 µg/mL 18 h), the “LPS-induced NOS2 protein levels” value is recorded as “decreased”. For the same molecule, in assay [2], the “NO production relative to cells treated with LPS alone” value is 48.1 ± 5.2%. Besides, in assay [3], the “IL-1β-induced NO production” value is “significantly decreased” and the “IL-1β-induced NOS2 protein levels” value is given as “significantly decreased”.
